{"source": "patent US20200345058A1", "about": "“Nicotine Oxalic Acid Formulations” (priority 2017, published 2020)", "details": "0.5% (w/w) nicotine or higher and 0.9% (w/w) tartaric acid or higher, ambient conditions", "from_the_text": "As used herein, weight percentage (w/w) refers to the weight of the individual component over the weight of the total formulation.", "data": [{"smiles": "CN1CCCC1c1cccnc1.O=C(O)C(O)C(O)C(=O)O", "note": "(stereo not shown) [nicotine bitartrate]", "values": [{"measurement": "solubility in propylene glycol (PG), vegetable glycerin (VG) or any mixture (in words)", "result": "will not produce a solution"}]}]}
